Assay results published in patent publication EP0846114B1, “3-PYRIDYLOXYALKYL HETEROCYCLIC ETHER COMPOUNDS USEFUL IN CONTROLLING CHEMICAL SYNAPTIC TRANSMISSION” (priority 1995, dated 1996).
Where a name gives a salt, the structure may show the parent alone. Read-outs that look alike come from different tables or passages of the source.

Legend:
[1] = target: T1, neuronal nicotinic cholinergic channel receptors (Rattus norvegicus, UniProt P09483+P12390); assay: [3H]-cytisine radioligand displacement binding (Protocol A)
T1 construct: crude synaptic membrane preparations from whole rat brain; from tissue; host or cells: whole rat brain, crude synaptic membranes
Experimental: Binding of [^3H]-cytisine ([^3H]-CYT) to nicotinic receptors was accomplished using crude synaptic membrane preparations from whole rat brain (Pabreza et al., Molecular Pharmacol., 1990, 39:9). Washed membranes were stored at -80°C prior to use. Frozen aliquots were slowly thawed and resuspended in 20 volumes of buffer (containing: 120 mM NaCl, 5 mM KCl, 2 mM MgCl2, 2 mM CaCl2 and 50 mM Tris-Cl, pH 7.4 @4°C). After centrifuging at 20,000x g for 15 minutes, the pellets were resuspended in 30 volumes of buffer. Homogenate (containing 125-150 µg protein) was added to triplicate tubes containing concentrations of test compound and [^3H]-CYT (1.25 nM) in a final volume of 500 µL. Samples were incubated for 60 minutes at 4°C, then rapidly filtered through Whatman GF/B filters presoaked in 0.5% polyethyleneimine using 3 x 4 mL of ice-cold buffer. The filters are counted in 4 mL of Ecolume® (ICN). […] Alternately, data were expressed as a percentage of the total specific binding.

[2] = test system: Neuronal Nicotinic Cholinergic Channels in IMR-32 Cells; assay: 86Rb+ efflux in IMR-32 cells (Protocol B); conditions: for IMR-32 maximal response: percent relative to the response elicited by 100 µM (S)-nicotine; for EC50: read-out: IMR-32 EC50, activation of 86Rb+ efflux, IMR-32 human neuroblastoma cells
Experimental: For the purpose of directly evaluating the ability of test compounds to functionally activate or inhibit certain subtypes of neuronal nicotinic cholinergic channels, an assay to determine ^86Rb^+ efflux in IMR-32 cells was employed (Protocol B below).
Experimental cells were seeded at a density of 500,000 cells/mL into a 24-well tissue culture dish. Plated cells were allowed to proliferate for at least 48 hours before loading with 2 µCi/mL of ^86Rb^+ (35 Ci/mmol) overnight at 37°C.

[3] = displacement of [3H]-CYT (1.25 nM), crude synaptic membranes from whole rat brain, IC50 converted to Ki (Cheng and Prusoff), read-out: Binding
[4] = inhibition of the efflux elicited by 100 µM (S)-nicotine, single dose 1 µM
[5] = inhibition of the efflux elicited by 100 µM (S)-nicotine, single dose 10 µM

T1 sequence (P09483 31-630): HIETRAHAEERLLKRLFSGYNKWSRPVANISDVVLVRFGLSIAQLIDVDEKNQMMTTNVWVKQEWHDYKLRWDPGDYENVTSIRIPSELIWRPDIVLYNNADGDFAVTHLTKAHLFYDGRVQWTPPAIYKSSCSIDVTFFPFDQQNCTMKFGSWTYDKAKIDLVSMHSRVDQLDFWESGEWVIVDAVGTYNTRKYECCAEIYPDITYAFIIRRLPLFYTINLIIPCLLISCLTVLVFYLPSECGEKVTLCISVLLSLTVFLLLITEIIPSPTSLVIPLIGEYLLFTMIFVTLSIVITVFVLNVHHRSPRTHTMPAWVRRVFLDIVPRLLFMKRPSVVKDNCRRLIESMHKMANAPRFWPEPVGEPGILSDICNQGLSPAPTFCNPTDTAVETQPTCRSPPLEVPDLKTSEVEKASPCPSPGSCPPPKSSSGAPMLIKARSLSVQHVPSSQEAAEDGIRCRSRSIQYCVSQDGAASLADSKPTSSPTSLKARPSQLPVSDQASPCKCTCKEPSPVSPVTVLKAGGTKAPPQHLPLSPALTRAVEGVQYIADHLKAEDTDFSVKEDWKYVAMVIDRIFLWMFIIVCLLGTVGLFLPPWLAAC
T1 sequence (P12390 25-500): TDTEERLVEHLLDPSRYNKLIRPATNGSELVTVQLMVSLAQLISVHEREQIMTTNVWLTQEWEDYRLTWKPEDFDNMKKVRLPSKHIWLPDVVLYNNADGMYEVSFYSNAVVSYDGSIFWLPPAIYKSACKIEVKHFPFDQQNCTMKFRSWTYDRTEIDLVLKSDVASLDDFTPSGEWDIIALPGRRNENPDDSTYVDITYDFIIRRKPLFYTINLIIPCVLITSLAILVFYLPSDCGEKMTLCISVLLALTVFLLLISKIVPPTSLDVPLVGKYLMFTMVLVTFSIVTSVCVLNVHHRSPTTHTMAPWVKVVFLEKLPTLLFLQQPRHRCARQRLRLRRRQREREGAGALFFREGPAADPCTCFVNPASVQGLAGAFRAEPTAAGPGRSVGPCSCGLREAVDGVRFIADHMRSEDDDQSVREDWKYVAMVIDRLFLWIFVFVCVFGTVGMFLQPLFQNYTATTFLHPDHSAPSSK

With “5-Ethyl-6-chloro-3-(1-methyl-2-(S)-pyrrolidinylmethoxy)pyridine hydrochloride [Example 47]” the Ki [1, 3] was 0.065 nM, the IMR-32 maximal response [2] was 152% and the EC50 [2] was 22000 nM.

Work on `Cl.Clc1ncc(OC[C@@H]2CCN2)cc1Br` [Example 2, 5-Bromo-6-chloro-3-(2-(S)-azetidinylmethoxy)pyridine hydrochloride] yielded an IMR-32 maximal response [2] of 120% and an EC50 [2] of 100 nM.

With `CN1CC[C@H]1COc1cnc(Cl)c(Br)c1.Cl` [Example 3, 5-Bromo-6-chloro-3-(1-methyl-2-(S)-azetidinylmethoxy)pyridine hydrochloride] the Ki [1, 3] was 0.38 nM and the “% Inhibition @ 1 µM” value [2] was 55%.

For `CN1CCC[C@H]1COc1cnc(Cl)c(Br)c1.Cl.Cl` [Example 5, 5-Bromo-6-chloro-3-(1-methyl-2-(S)-pyrrolidinylmethoxy)pyridine dihydrochloride], the Ki [1] was 0.35 nM, the “% Inhibition @ 1 µM” value [2, 4] was 12% and the “% Inhibition @ 10 µM” value [2, 5] was 22%. It also gave an IMR-32 maximal response [2] of 12%.

With `Cl.Cl.Clc1ncc(OC[C@H]2CCCN2)cc1Br` [Example 7, 5-bromo-6-chloro-3-(2-(R)-pyrrolidinylmethoxy)pyridine dihydrochloride] the Ki [1] was 0.099 nM, the IMR-32 maximal response [2] was 70% and the EC50 [2] was 4900 nM.

For `CN1CCC[C@@H]1COc1cnc(Cl)c(Br)c1.Cl` [Example 8, 5-bromo-6-chloro-3-(1-methyl-2-(R)-pyrrolidinylmethoxy)pyridine hydrochloride], the Ki [1] was 13 nM, the “% Inhibition @ 1 µM” value [2, 4] was 28% and the “% Inhibition @ 10 µM” value [2, 5] was 60%. For the same molecule, the IMR-32 maximal response [2] was 10.6%.

For `Cl.Clc1cc(OC[C@H]2CCCN2)cnc1Cl` [Example 9, 5,6-Dichloro-3-(2-(R)-pyrrolidinylmethoxy)pyridine hydrochloride], the Ki [1, 3] was 0.03 nM, the IMR-32 maximal response [2] was 67% and the EC50 [2] was 1600 nM.

In the case of `CN1CCC[C@@H]1COc1cnc(Cl)c(Cl)c1.Cl` [Example 10, 5,6-Dichloro-3-(1-methyl-2-(R)-pyrrolidinylmethoxy)pyridine hydrochloride], the Ki [1, 3] is reported as 20 nM, the “% Inhibition @ 1 µM” value [2] is reported as 18% and the “% Inhibition @ 10 µM” value [2] is reported as 90%. For the same molecule, the IMR-32 maximal response [2] was 3.3%.

In the case of `Cl.Clc1cc(OC[C@@H]2CCCN2)cnc1Cl` [Example 11, 5,6-Dichloro-3-(2-(S)-pyrrolidinylmethoxy)pyridine hydrochloride], the Ki [1, 3] is reported as 0.029 nM, the IMR-32 maximal response [2] is reported as 93% and the EC50 [2] is reported as 600 nM.

For `CN1CCC[C@H]1COc1cnc(Cl)c(Cl)c1.Cl` [Example 12, 5,6-Dichloro-3-(1-methyl-2-(S)-pyrrolidinylmethoxy)pyridine hydrochloride], the Ki [1, 3] was 0.11 nM, the “% Inhibition @ 1 µM” value [2] was 5% and the “% Inhibition @ 10 µM” value [2] was 8%. It also gave an IMR-32 maximal response [2] of 16%.

Work on `Cl.Clc1cc(OC[C@@H]2CCN2)cnc1Cl` [Example 15, 5,6-dichloro-3-(2-(S)-azetidinylmethoxy)pyridine hydrochloride] yielded an IMR-32 maximal response [2] of 152% and an EC50 [2] of 300 nM.

In the case of `CN1CC[C@H]1COc1cnc(Cl)c(Cl)c1.Cl` [Example 16, 5,6-dichloro-3-(1-methyl-2-(S)-azetidinylmethoxy)pyridine hydrochloride], the Ki [1, 3] is reported as 0.7 nM, the “% Inhibition @ 1 µM” value [2] is reported as 35% and the IMR-32 maximal response [2] is reported as 37%. It also gave an EC50 [2] of 500 nM.

`Cl.Clc1cc(OC[C@H]2CCN2)cnc1Cl` [Example 17, 5,6-dichloro-3-(2-(R)-azetidinylmethoxy)pyridine hydrochloride] showed a Ki [1] of 0.06 nM, an IMR-32 maximal response [2] of 108% and an EC50 [2] of 200 nM.

`CN1CC[C@@H]1COc1cnc(Cl)c(Cl)c1.Cl` [Example 18, 5,6-dichloro-3-(1-methyl-2-(R)-azetidinylmethoxy)pyridine hydrochloride] was tested, and the Ki [1, 3] was 2.4 nM, the “% Inhibition @ 1 µM” value [2] was 0% and the “% Inhibition @ 10 µM” value [2] was 18%. It also gave an IMR-32 maximal response [2] of 22.5%.

With `CCc1cc(OC[C@@H]2CCN2)cnc1Cl.Cl` [Example 45, 5-Ethyl-6-chloro-3-(2-(S)-azetidinylmethoxy)pyridine hydrochloride] the Ki [1] was 0.04 nM, the IMR-32 maximal response [2] was 137% and the EC50 [2] was 400 nM.

`CCc1cc(OC[C@@H]2CCCN2)cnc1Cl.Cl` [Example 46, 5-Ethyl-6-chloro-3-(2-(S)-pyrrolidinylmethoxy)pyridine hydrochloride] was tested, and the Ki [1, 3] was 0.6 nM and the IMR-32 maximal response [2] was 11%.

`CCc1cc(OC[C@H]2CCCN2)cnc1Cl.Cl` [Example 48, 5-Ethyl-6-chloro-3-(2-(R)-pyrrolidinylmethoxy)pyridine hydrochloride] was tested, and the Ki [1, 3] was 0.027 nM, the IMR-32 maximal response [2] was 129% and the EC50 [2] was 56000 nM.

With `Cl.N#Cc1cc(OC[C@@H]2CCN2)cnc1Cl` [Example 49, 5-Cyano-6-chloro-3-(2-(S)-azetidinylmethoxy)pyridine hydrochloride] the Ki [1, 3] was 0.097 nM, the IMR-32 maximal response [2] was 158% and the EC50 [2] was 290 nM.

Molecule `CN1CC[C@H]1COc1cnc(Cl)c(C#N)c1.Cl` [Example 50, 5-Cyano-6-chloro-3-(1-methyl-2-(S)-azetidinylmethoxy)pyridine hydrochloride] has a Ki [1, 3] of 0.88 nM, an IMR-32 maximal response [2] of 35% and an EC50 [2] of 10000 nM.

`NC(=O)c1cc(OC[C@@H]2CCN2)cnc1Cl` [Example 51, hydrochloride] was tested, and the Ki [1, 3] was 0.19 nM, the IMR-32 maximal response [2] was 64% and the EC50 [2] was 16000 nM.

In the case of `Cc1ncc(OC[C@@H]2CCN2)cc1Br.Cl` [Example 52, 5-bromo-6-methyl-3-(2-(S)-azetidinylmethoxy)pyridine hydrochloride], the IMR-32 maximal response [2] is reported as 124% and the EC50 [2] is reported as 1600 nM.
